Assays:
Type in all cases: cell-based
[1] = system: human immortalized epidermal cells; experiment: Cytotoxicity test (MTT) of human immortalized epidermal cells; conditions: samples containing cannabis seed oil
Experimental: Human immortalized epidermal cells at a logarithmic phase were collected, the concentration of the cell suspension was adjusted, the cell suspension was added to a 96-well plate at 100 μl per well, incubation was performed at 37° C. and with 5% CO2 to reach a cell density of 5000 cells/well. The solution was changed and the experimental samples at different concentration gradients were added (as the following Table 4), a culture solution containing no experiment sample was used as the control. Incubation was performed with 5% CO2 and at 37° C. for 24 hours, 20 μl of MTT solution (5 mg/ml, i.e. 0.5% MTT) was added into each well, the cultivation was continued for four hours. The drug reacted with MTT sufficiently, firstly centrifugation was performed, then the culture solution was abandoned, and rinsing was performed with PBS carefully for 2-3 times, then a culture solution containing MTT was added. The cultivation was terminated, the culture solution in the well were drawn off carefully. […] The absorbance values of each well were measured in an enzyme linked immunosorbent detector at OD value of 490 nm.
Cell survival rate=(determined well OD value−blank control OD value)/(OD value in the cell comparative group−OD value in the blank control)×100%.

tyrosinase = target: T1, tyrosinase (Mus musculus, UniProt P11344); experiment: Determination of tyrosinase inhibition rate in B16 cells; conditions: action of 72 hours, inhibition rate increased with amount
T1 construct: endogenous in cells; host or cells: B16 cells
T1 sequence (P11344 19-533): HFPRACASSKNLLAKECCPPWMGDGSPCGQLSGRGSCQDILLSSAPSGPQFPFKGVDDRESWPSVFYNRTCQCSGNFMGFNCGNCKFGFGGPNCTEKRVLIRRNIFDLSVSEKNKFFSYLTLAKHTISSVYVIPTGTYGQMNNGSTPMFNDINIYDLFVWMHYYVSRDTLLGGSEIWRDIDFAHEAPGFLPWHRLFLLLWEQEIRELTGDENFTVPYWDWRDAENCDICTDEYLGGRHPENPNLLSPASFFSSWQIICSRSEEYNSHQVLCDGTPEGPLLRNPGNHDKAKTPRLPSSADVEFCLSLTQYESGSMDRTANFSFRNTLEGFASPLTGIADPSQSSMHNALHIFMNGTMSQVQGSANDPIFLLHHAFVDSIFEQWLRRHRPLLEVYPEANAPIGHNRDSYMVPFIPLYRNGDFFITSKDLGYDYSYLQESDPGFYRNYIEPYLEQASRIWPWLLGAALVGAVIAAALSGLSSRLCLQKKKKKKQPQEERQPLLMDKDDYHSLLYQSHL
Experimental: B16 cells at a logarithmic phase were collected, trypsin was adopted for digestion, the digestion was terminated with a complete medium (DMEM high sugar medium+10% fetal calf serum), counting was performed; the cell suspension was adjusted to 10×10^4 cells/mL, and inoculated into a 96-well culture plate, each well was added with 100 μl of cell suspension, the marginal wells were filled with sterile PBS, and cultivated in an incubator at 37° C. and with 5% CO2 overnight, the medium (DMEM high sugar medium+10% fetal calf serum) was drawn out, 100 μl of the experiment sample was added into each well, and a control group (namely, the well without the sample but with only medium) was set. After action of 72 hours, 50 μl of 1% TritionX-100 solution was added for cell lysis, quickly put into an ultra-low temperature freezer at −80° C. and cryopreserved for one hour, subsequently the cryopreserved solution was thawed at room temperature, such that tyrosinase within the cells were released outside the cells, pre-warming was performed to 37° C., then 50 μl of 1% levodopa solution was added to produce a mixture, the mixture was reacted at 37° C. for 2 hours, the absorbance value in each well was determined at the wavelength of 490 nm, for every sample concentration, more than 3 subwells were set, and averaged. […]

B16 cells = experiment: Determination of melanin content in B16 cells; conditions: positive control 33 mM
Experimental: B16 cells in good state at a logarithmic phase were collected, trypsin was adopted for digestion, the digestion was terminated with a complete medium, and counting was performed; the prepared cell suspension was adjusted to 5×10^4 cells/ml and added into a 6-well culture plate, 2 ml of cell suspension was added into each well, cultivation was performed in an incubator at 37° C. and with 5% CO2 overnight; the medium was drawn out, 2 ml of cannabis extracts with different concentrations were added into each well, after action of 48 hours, the medium was drawn out and abandoned, trypsin was adopted for digestion, and the product was collected into a centrifugal tube, centrifugation was performed to obtain a cell precipitate, the cell precipitate was washed with PBS for one time, a 1M NaOH (containing 10% DMSO) solution was added for cell lysis, and the lysed cells were put in a 80° C. water bath kettle for water bath for 30 minutes; uniform shaking and mixing were performed, and the processed cells were drawn into to a 96-well plate; and the absorbance value was determined at the wavelength of 245 nm.
Relative melanin content=(mean absorbance value in each well under every concentration−mean absorbance value in the control group)[…].

SMILES | cell proliferation (eliminating the influence of the cannabis seed oil) [1] | inhibitory effect against tyrosinase (inhibition rate) (tyrosinase) | melanin content within the B16 cells (B16 cells) [%]
C=C(C)[C@@H]1CCC(C)=C[C@H]1c1c(O)cc(CCCCC)cc1O [CBD, Cannabidiol] | promote cell proliferation to a certain extent | effective inhibitory effect against tyrosinase | 
OC[C@H]1O[C@@H](Oc2ccc(O)cc2)[C@H](O)[C@@H](O)[C@@H]1O [arbutin, Arbutin] |  |  | 79.24
